In ChEMBL document CHEMBL3612037, “Design and synthesis of some new pyrazolyl-pyrazolines as potential anti-inflammatory, analgesic and antibacterial agents” (Eur J Med Chem, 2015):
Converted amounts (≈) assume the structure as drawn. The source made the active and inactive calls. No cut-off for these calls is given here.

Tests used:
[1] = system: Staphylococcus aureus; assay: Antimicrobial activity against Staphylococcus aureus by agar dilution method; format: functional
[2] = system: Aeromonas hydrophila; assay: Antimicrobial activity against Aeromonas hydrophila by agar dilution method; format: functional
[3] = system: Escherichia coli; assay: Antimicrobial activity against Escherichia coli by agar dilution method; format: functional
[4] = system: Staphylococcus; assay: Antimicrobial activity against Staphylococcus citreus by agar dilution method; format: functional
[5] = system: Escherichia coli; assay: Antimicrobial activity against Escherichia coli at 20 uL of 1 mg/ml by disc diffusion assay; format: functional; conditions: for zone of inhibition at 1000 µg/mL: read-out: IZ
[6] = system: Mus musculus; assay: Acute toxicity in Swiss mouse assessed as induction of depression incidence at 100 to 1000 mg/kg, po measured 48 hrs post dose; format: organism-based; conditions: in vivo
[7] = system: Rattus norvegicus; assay: Anti-inflammatory activity in Wistar rat assessed as inhibition of carrageenan-induced paw oedema at 50 mg/kg, po dosed 30 mins before carrageenan challenge and measured 120 mins post carrageenan challenge; format: functional
[8] = system: Rattus norvegicus; assay: Analgesic activity in Wistar rat assessed as tail flick latency time at 50 mg/kg, po measured 0 mins post dose by tail flick method (reference value: 3.5 +/- 0.8 secs); format: functional
[9] = system: Aeromonas hydrophila; assay: Antimicrobial activity against Aeromonas hydrophila at 20 uL of 1 mg/ml by disc diffusion assay; format: functional; conditions: for zone of inhibition at 1000 µg/mL: read-out: IZ
[10] = system: Staphylococcus; assay: Antimicrobial activity against Staphylococcus citreus at 20 uL of 1 mg/ml by disc diffusion assay; format: functional; conditions: read-out: IZ
[11] = system: Rattus norvegicus; assay: Analgesic activity in Wistar rat assessed as tail flick latency time at 50 mg/kg, po measured 30 mins post dose by tail flick method (reference value: 3.46 +/- 0.1 secs); format: functional
[12] = Acute toxicity in Swiss mouse at 100 to 1000 mg/kg, po measured 48 hrs post dose; format: organism-based; conditions: in vivo
[13] = system: Mus musculus; assay: Acute toxicity in Swiss mouse assessed as induction of diarrhoea incidence at 100 to 1000 mg/kg, po measured 48 hrs post dose; format: organism-based; conditions: in vivo
[14] = system: Rattus norvegicus; assay: Analgesic activity in Wistar rat assessed as tail flick latency time at 50 mg/kg, po measured 90 mins post dose by tail flick method (reference value: 3.7 +/- 0.1 secs); format: functional
[15] = system: Rattus norvegicus; assay: Analgesic activity in Wistar rat assessed as tail flick latency time at 50 mg/kg, po measured 60 mins post dose by tail flick method (reference value: 3.47 +/- 0.1 secs); format: functional
[16] = system: Rattus norvegicus; assay: Anti-inflammatory activity in Wistar rat assessed as inhibition of carrageenan-induced paw oedema at 50 mg/kg, po dosed 30 mins before carrageenan challenge and measured 60 mins post carrageenan challenge; format: functional
[17] = system: Staphylococcus aureus; assay: Antimicrobial activity against Staphylococcus aureus at 20 uL of 1 mg/ml by disc diffusion assay; format: functional; conditions: read-out: IZ
[18] = system: Rattus norvegicus; assay: Anti-inflammatory activity in Wistar rat assessed as inhibition of carrageenan-induced paw oedema at 50 mg/kg, po dosed 30 mins before carrageenan challenge and measured 30 mins post carrageenan challenge; format: functional
[19] = system: Rattus norvegicus; assay: Anti-inflammatory activity in Wistar rat assessed as inhibition of carrageenan-induced paw oedema at 20 mg/kg, po dosed 30 mins before carrageenan challenge and measured 120 mins post carrageenan challenge; format: functional
[20] = system: Rattus norvegicus; assay: Anti-inflammatory activity in Wistar rat assessed as inhibition of carrageenan-induced paw oedema at 20 mg/kg, po dosed 30 mins before carrageenan challenge and measured 60 mins post carrageenan challenge; format: functional
[21] = system: Rattus norvegicus; assay: Anti-inflammatory activity in Wistar rat assessed as inhibition of carrageenan-induced paw oedema at 20 mg/kg, po dosed 30 mins before carrageenan challenge and measured 30 mins post carrageenan challenge; format: functional
[22] = system: Rattus norvegicus; assay: Analgesic activity in Wistar rat assessed as tail flick latency time at 20 mg/kg, po measured 60 mins post dose by tail flick method (reference value: 3.47 +/- 0.1 secs); format: functional
[23] = system: Rattus norvegicus; assay: Analgesic activity in Wistar rat assessed as tail flick latency time at 20 mg/kg, po measured 30 mins post dose by tail flick method (reference value: 3.46 +/- 0.1 secs); format: functional
[24] = system: Rattus norvegicus; assay: Analgesic activity in Wistar rat assessed as tail flick latency time at 20 mg/kg, po measured 0 mins post dose by tail flick method (reference value: 3.5 +/- 0.8 secs); format: functional
[25] = system: Rattus norvegicus; assay: Analgesic activity in Wistar rat assessed as tail flick latency time at 20 mg/kg, po measured 90 mins post dose by tail flick method (reference value: 3.7 +/- 0.1 secs); format: functional

Structure (SMILES)	MIC [1]	MIC [2]	MIC [3]	MIC [4]	Activity [6]	inhibition in vivo at 50 mg/kg [7]	Time [8]	zone of inhibition at 1000 µg/mL [9]	zone of inhibition at 1000 µg/mL [10]	Time [11]	LD50 at 48 h [12]	Activity [13]	Time [14]	Time [15]	inhibition in vivo at 50 mg/kg [16]	zone of inhibition at 1000 µg/mL [17]	inhibition in vivo at 50 mg/kg [18]	zone of inhibition at 1000 µg/mL [5]	further results
CC1(C)S[C@@H]2[C@H](NC(=O)[C@H](N)c3ccccc3)C(=O)N2[C@H]1C(=O)O [AMPICILLIN]	300 µg/mL (≈ 859 µM)	200 µg/mL (≈ 572 µM)	100 µg/mL (≈ 286 µM)	200 µg/mL (≈ 572 µM)															
CO/N=C(\C(=O)N[C@@H]1C(=O)N2C(C(=O)O)=C(COC(N)=O)CS[C@H]12)c1ccco1 [CEFUROXIME]		500 µg/mL (≈ 1180 µM)	500 µg/mL (≈ 1180 µM)	600 µg/mL (≈ 1410 µM)															
Clc1ccc(C2=NN(c3ccccc3)C(c3cn(-c4ccccc4)nc3-c3ccc(Cl)c(Cl)c3)C2)cc1 (centres undefined)		400 µg/mL (≈ 735 µM)			Non-toxic	61.7%	4.3 s	28 mm	19 mm	6.1 s	500 mg/kg	Non-toxic	4.9 s	6.1 s	53.4%	15 mm	45.7%		inhibition zone (IZ) [5]: inactive
O=C(O)Cc1ccccc1Nc1c(Cl)cccc1Cl [DICLOFENAC SODIUM]																			inhibition in vivo at 20 mg/kg [19]: 76.6%; inhibition in vivo at 20 mg/kg [20]: 71%; inhibition in vivo at 20 mg/kg [21]: 46.8%
CN(C)[C@@H]1C(O)=C(C(N)=O)C(=O)[C@@]2(O)C(O)=C3C(=O)c4c(O)cccc4[C@@](C)(O)[C@H]3C[C@@H]12 [TETRACYCLINE]	300 µg/mL (≈ 675 µM)	400 µg/mL (≈ 900 µM)	400 µg/mL (≈ 900 µM)	300 µg/mL (≈ 675 µM)															
CCC(=O)N1N=C(c2ccc(F)cc2)CC1c1cn(-c2ccccc2)nc1-c1ccc(Cl)c(Cl)c1 (centres undefined)		400 µg/mL (≈ 788 µM)			Non-toxic	75.6%	3.4 s	28 mm	15 mm	7.9 s	500 mg/kg	Non-toxic	7.2 s	7.7 s	63.4%	23 mm	51.1%	21 mm	
Clc1ccc(C2=NNC(c3cn(-c4ccccc4)nc3-c3ccc(Cl)c(Cl)c3)C2)cc1 (centres undefined)			200 µg/mL (≈ 428 µM)		Non-toxic	48.4%	3.6 s	15 mm	18 mm	5.4 s	500 mg/kg	Non-toxic	4.6 s	5.7 s	45.8%	21 mm	33%	34 mm	
Fc1ccc(C2=NN(c3ccccc3)C(c3cn(-c4ccccc4)nc3-c3ccc(Cl)c(Cl)c3)C2)cc1 (centres undefined)	300 µg/mL (≈ 569 µM)			200 µg/mL (≈ 379 µM)	Non-toxic	60.1%	3.1 s		37 mm	4.6 s	500 mg/kg	Non-toxic	4.8 s	5.2 s	55.7%	31 mm	44.7%	21 mm	inhibition zone (IZ) [9]: inactive
CC(C)=CCN1CC[C@]2(C)c3cc(O)ccc3C[C@H]1[C@H]2C [(+)-PENTAZOCINE]																			Time [22]: 7.7 s; Time [23]: 7.4 s; Time [24]: 3.6 s; Time [25]: 7.9 s
